Experimental findings from patent US12514928B2, “Herboxidiene antibody-drug conjugates and methods of use” (Eisai R&D Management Co., Ltd., priority 2018, dated 2026) are described below.

Read-outs that look alike come from different tables or passages of the source.

The subject of data set [1] is Ad2.2 pre-mRNA. The data set is described as follows: In vitro splicing (IVS) assay with HeLa nuclear extract, RT-qPCR of spliced product. Format: biochemical. To be noted: payload, HELA.2, read-out: qPCR-IVS-ATS GMean IC50 (nM) Ad2.2 HELA.2. The protocol:
2.1 In Vitro Splicing (IVS)
To evaluate payload activity in a cell-free system, an in vitro splicing assay was performed. The payloads were incubated with nuclear extracts and pre-mRNA substrate minigenes.
HeLa nuclear extract preparation: HeLa S3 cell pellets were resuspended in hypotonic buffer (10 mM HEPES pH 7.9, 1.5 mM MgCl2, 10 mM KCl, 0.2 mM PMSF, 0.5 mM DTT) and the suspension was brought up to a total of 5 packed cell volume (PCV). After centrifugation, the supernatant was discarded, and the cells were brought up to 3 PCV with hypotonic buffer and incubated on ice for 10 min. Cells were lysed using a dounce homogenizer and then centrifuged. The supernatant was discarded, and the pellet was resuspended with […] packed nuclear volume (PNV) of low salt buffer (20 mM HEPES pH 7.9, 1.5 mM MgCl2, 20 mM KCl, 0.2 mM EDTA, 25% glycerol, 0.2 mM PMSF, 0.5 mM DTT), followed by 1/2 PNV of high salt buffer (same as low salt buffer except 1.4 M KCl). The nuclei were gently mixed for 30 min before centrifuging. The supernatant (nuclear extract) was then dialyzed into storage buffer (20 mM HEPES pH 7.9, 100 mM KCl, 0.2 mM EDTA, 20% glycerol, 0.2 mM PMSF, 0.5 mM DTT). Protein concentration was determined using NanoDrop 8000 UV-Vis spectrophotometer (ThermoFisher Scientific).
IVS: All Ad2-derived sequences (Pellizzoni et al. (1998) Cell 95(5):615-24) were cloned into pcDNA3.1(+) vector (Promega) using 5′ EcoRI and 3′ Xbal restriction sites. The plasmids were linearized using Xbal and used as DNA templates in in vitro transcription reactions. The FtzΔi intron-less plasmid (Luo and Reed (1999) 96(26):14937-42) was linearized using EcoRI. All RNAs were in vitro transcribed and then purified using MEGAScript T7 (Invitrogen) and MegaClear (Invitrogen) kits, respectively. For splicing reactions using Ad2 variant pre-mRNAs, […] were prepared using 8 μg nuclear extracts prepared from HeLa S3, 2 ng pre-mRNA, 0.2 ng FTZΔi, and varying concentrations of compounds or DMSO. After a 15 min pre-incubation at 30° C., 1 μL splicing activation buffer (0.5 mM ATP, 20 mM creatine phosphate, 1.6 mM MgCl2) was added, and the reactions were incubated for 90 min at 30° C. The reactions were then quenched with 13 μL DMSO, and 25 nL was used for RT-qPCR. RT-qPCR reactions were prepared using TaqMan RNA-to-CT 1-step kit (Life Technologies), RNA from splicing reactions, Ad2 (forward: […]; reverse: […]; probe: CTGTTGGGCTCGCGGTTG) and Ftz (forward: […]; reverse: […]; probe: […]) mRNA primer-probe sets. Prism 7 (Graphpad) was used for non-linear regression curve fitting of the formed spliced product and normalized to the control (DMSO) sample.

Data set [2] in a line: Caco-2 permeability of ADC payload. Format: in vitro ADME. To be noted: human, payload at 10 μM, 2 hours, apical to basolateral, read-out: Permeability Mean Caco-2 A-B Perm. The protocol:
3.5.2 Caco-2 Permeability of ADC Payload
Caco-2 cells were cultured for 21 days in transwell 24-well plates at 37° C., 95% humidity, 5% CO2. Integrity of cell monolayer was confirmed by TEER (transepithelial electrical resistance) and Lucifer yellow. Payloads were spiked in duplicate at 10 μM, separately, on both sides of the cell monolayer. Permeability rates from the apical to basolateral (A-B) direction and the basolateral to apical (B-A) direction were determined by sampling aliquots from both chambers immediately after treatment (t=0) and following incubation for 2 hours. Samples were protein precipitated with organic solvent containing internal standard and analyzed by LC-MS/MS (SCI EX; API 5500). The area ratio responses of payload/internal standard over time in both directions were used to generate permeability (cm/sec) values. Efflux ratio was calculated by dividing B-A/A-B. Control compounds for low and high permeability and efflux behaved as expected.
A general note: Caco-2 cells form a polarised layer with tight junctions and transporters.

In data set [3] the test system is Ad2.1. The data set is described as follows: In vitro splicing (IVS) assay, qPCR-IVS-ATS, Ad2.1 substrate, HELA.2. It counts as biochemical. As to conditions: payload, read-out: qPCR-IVS-ATS GMean IC50 (nM) Ad2.1 HELA.2. For orientation: Quantitative PCR measures a nucleic acid by following its amplification.
Data set [4] deals with THP1.1. The data set is described as follows: Herboxidiene splicing modulator cell potency, CTGlo-ATS, THP1.1, 72 h. Format: cell-based.
For data set [5], the system named is NCIH1650.1. As to the kind of experiment: Herboxidiene splicing modulator cell potency, CTGlo-ATS, NCIH1650.1, 72 h. It counts as cell-based.
Setting [6] is: read-out: CTGIo-ATS GMean GI50 (nM) 72 h THP1.1.
The mark [7] stands for this setting: read-out: CTGIo-ATS GMean GI50 (nM) 72 h NCIH1650.1.

As usually defined, the IC50 is the point on the concentration scale where inhibition reaches its midpoint. In general, GI50 refers to the concentration that inhibits growth by half. `CO[C@H]([C@@H](C)[C@H]1O[C@]1(C)C[C@H](C)/C=C/C=C(\C)[C@H]1O[C@@H](CNC(=O)CCCCCOC(=O)N2CCCNCC2)CC[C@@H]1C)[C@@H](C)O` [Compound H6, 6-((((2R,5S,6S)-6-((S,2E,4E)-7-((2R,3R)-3-((2R,3R,4R)-4-hydroxy-3-methoxypentan-2-yl)-2-methyloxiran-2-yl)-6-methylhepta-2,4-dien-2-yl)-5-methyltetrahydro-2H-pyran-2-yl)methyl)amino)-6-oxohexyl 1,4-diazepane-1-carboxylate]: the half-inhibitory concentration (IC50) worked out at 7.19 nM in data set [1] and 9.51 nM in data set [3]. Also, the Papp A→B at 2 h, 10 μM in data set [2] is 5.72 ×10⁻⁶ cm/s. For the same molecule, the “CTGIo-ATS GMean LD50 (nM) 72 h THP1.1” value in data set [4] (payload) came to 6.522 nM. The “CTGIo-ATS Mean MinResponse % 72 h THP1.1” value in data set [4] (payload) was −101.275%. Moreover, the results for the GI50 in data set [4] (setting [6]) and in data set [5] (setting [7]) were 0.701 nM and 0.219 nM, respectively. The “CTGIo-ATS GMean LD50 (nM) 72 h NCIH1650.1” value in data set [5] (payload) is 1.336 nM. Further, the “CTGIo-ATS Mean MinResponse % 72 h NCIH1650.1” value in data set [5] (payload) came to 0.978%.

As for `CO[C@H]([C@@H](C)[C@H]1O[C@]1(C)C[C@H](C)/C=C/C=C(\C)[C@H]1O[C@@H](CNC(=O)CCOCCOC(=O)N2CCCNCC2)CC[C@@H]1C)[C@@H](C)O` [Compound H9, 2-(3-((((2R,5S,6S)-6-((S,2E,4E)-7-((2R,3R)-3-((2R,3R,4R)-4-hydroxy-3-methoxypentan-2-yl)-2-methyloxiran-2-yl)-6-methylhepta-2,4-dien-2-yl)-5-methyltetrahydro-2H-pyran-2-yl)methyl)amino)-3-oxopropoxy)ethyl 1,4-diazepane-1-carboxylate], the IC50 in data set [1] is 8.66 nM; in data set [3], 9.68 nM. The Papp A→B at 2 h, 10 μM in data set [2] is 11.6 ×10⁻⁶ cm/s. Also, the “CTGIo-ATS GMean LD50 (nM) 72 h THP1.1” value in data set [4] (payload) is on record as 14.441 nM. Moreover, in data set [4] (payload), the “CTGIo-ATS Mean MinResponse % 72 h THP1.1” value is recorded as −101.645%. The GI50 in data set [4] (setting [6]) was determined as 1.34 nM; in data set [5] (setting [7]) it was 0.481 nM. For the same molecule, the “CTGIo-ATS GMean LD50 (nM) 72 h NCIH1650.1” value in data set [5] (payload) came out at 2.681 nM. The “CTGIo-ATS Mean MinResponse % 72 h NCIH1650.1” value in data set [5] (payload) came to 2.327%.

`CNC1CCN(C(=O)OCCOCCC(=O)NC[C@H]2CC[C@H](C)[C@@H](/C(C)=C/C=C/[C@@H](C)C[C@@]3(C)O[C@@H]3[C@H](C)[C@@H](OC)[C@@H](C)O)O2)C1` (stereo partly drawn) [Compound H10, 2-(3-((((2R,5S,6S)-6-((S,2E,4E)-7-((2R,3R)-3-((2R,3R,4R)-4-hydroxy-3-methoxypentan-2-yl)-2-methyloxiran-2-yl)-6-methylhepta-2,4-dien-2-yl)-5-methyltetrahydro-2H-pyran-2-yl)methyl)amino)-3-oxopropoxy)ethyl 3-(methylamino)pyrrolidine-1-carboxylate]: the IC50 in data set [1] amounted to 16.5 nM; in data set [3] it was 21.7 nM. In addition, the “CTGIo-ATS GMean LD50 (nM) 72 h THP1.1” value in data set [4] (payload) amounted to 21.021 nM. In addition, the “CTGIo-ATS Mean MinResponse % 72 h THP1.1” value in data set [4] (payload) was −98.789%. The 50% growth inhibitory concentration (GI50) in data set [4] (payload, THP1.1, read-out: CTGIo-ATS GMean GI50 (nM) 72 h THP1.1) came out at 2.06 nM; in data set [5] (payload, NCIH1650.1, read-out: CTGIo-ATS GMean GI50 (nM) 72 h NCIH1650.1), 3.04 nM. Also, the “CTGIo-ATS GMean LD50 (nM) 72 h NCIH1650.1” value in data set [5] (payload) is recorded as over 10000 nM. Further, the “CTGIo-ATS Mean MinResponse % 72 h NCIH1650.1” value in data set [5] (payload) is 9.194%.
